Source: US11234985B2, “Antiviral therapy” (VIIV HEALTHCARE COMPANY, priority 2010, dated 2022)

System: HIV-1 (strain IIIB)
Assay: Antiviral HIV activity in combination, tetrazolium-based (MTS) colorimetric checkerboard assay in MT-4 cells
Type: cell-based
Details: HIV-1 IIIB infected MT-4 cells, 5 days
Description: Antiviral HIV activity was measured by means of a tetrazolium-based colorimetric procedure in the human T-cell leukemia virus (HTLV-1) transformed cell line MT-4. Aliquots of test compound were diluted vertically across a deep-well master assay plate, in medium (RPMI 1640, 10% vol./vol. fetal bovine serum (FBS), and 10 μg/mL gentamicin), at concentrations that were approximately 40-fold higher than the final assay concentration. Serial dilutions were made at either 1:2 or 1:3.16 ratios. HIV inhibitors were diluted horizontally across master assay plates, also in concentrations that were approximately 40-fold higher than the final assay concentration. Small aliquots of both the vertically-diluted and the horizontally-diluted compounds were combined in daughter plates using an automated 96-well pipetting system (RapidPlate-96, Zymark Corp.). Checkerboard style dilutions were arranged so that every concentration of test compound was tested in the presence and absence of every concentration of the HIV inhibitors. Anti-HIV activity tests were performed in triplicate assays, or more, of each combination. Exponentially growing MT-4 cells were harvested and centrifuged at 1,000 rpm for 10 minutes in a Jouan centrifuge (Model CR 4 12). Cell pellets were re-suspended in fresh medium (RPMI 1640, 20% vol./vol. FBS, 20% vol./vol. IL-2, and 10 μg/mL gentamicin) to a density of 1.25×10^6 cells/mL. Cell aliquots were infected by the addition of HIV-1 (strain IIIB) diluted to give a viral multiplicity of infection (MOI) of 73 pfU per 1×10^4 cells. A similar cell aliquot was diluted with medium to provide a mock-infected control. Cell infection was allowed to proceed for 1 hour at 37° C. in a tissue culture incubator with humidified 5% CO2 atmosphere. After the 1 hour incubation the virus/cell suspension was added to each well of the plates containing pre-diluted compounds. Plates were then placed in a tissue culture incubator with humidified 5% CO2 for 5 days. At the end of the incubation period, […] of CellTiter 96 MTS reagent (Promega no. G3581) was added to each well of the incubation plate. Plates were incubated at 37° C. for 2 to 3 hours to allow for color development. O.D. was measured at […] using a microplate absorbance reader (Tecan no. 20-300).
HIV-1 strain IIIB, wild-type laboratory strain, virus titer=6.896 E4 TCID50/mL.
Although some assay formats might theoretically miss antagonism due to combination cytotoxicity, the approach described here should not miss an antagonistic effect. The readout in the MT-4 cell assay utilizes MTS, a tetrazolium-based staining reagent where changes in optical density (O.D.) of the reagent are used to estimate the total cell number remaining after treatment. Final MT-4 cell numbers may decrease due to two effects. First, an HIV-induced cytotoxicity may occur when HIV kills greater than 75% of the MT-4 cells during the 5 days following infection. Second, a compound-induced cytotoxicity may occur, where the compound either directly kills the MT-4 cells or prevents cell growth (stasis) over the 5 days in either infected or uninfected cells. In either of these situations the O.D. is low as compared with infected cells protected by anti-HIV-1 compounds or relative to untreated and uninfected control cells. Since both cytotoxic effects and antagonism of anti-HIV activity would lead to lower O.D. we should not miss an antagonistic effect due to combination cytotoxicity, but could underestimate synergistic combinations.
Within assay combination cytotoxicity was evaluated by comparing wells containing the uninfected MT-4 cells from the assay plates that contained the highest concentration of test compound or the comparator compound, with wells containing […] MT-4 cells under the corresponding highest combination concentrations. For each of these values there is one well per assay plate and thus at least 3 wells per combination assay. […]

C[C@@H]1CCO[C@H]2Cn3cc(C(=O)NCc4ccc(F)cc4F)c(=O)c(O)c3C(=O)N12 [formula (I)]
interaction (deviation from dosewise additivity) of anti-HIV activity (in combination with abacavir): synergistic | interaction (deviation from dosewise additivity) of anti-HIV activity (in combination with adefovir): additive | interaction (deviation from dosewise additivity) of anti-HIV activity (in combination with amprenavir): synergistic | interaction (deviation from dosewise additivity) of anti-HIV activity (in combination with efavirenz): synergistic | interaction (deviation from dosewise additivity) of anti-HIV activity (in combination with enfuvirtide): synergistic | interaction (deviation from dosewise additivity) of anti-HIV activity (in combination with lopinavir): synergistic | interaction (deviation from dosewise additivity) of anti-HIV activity (in combination with maraviroc): additive | interaction (deviation from dosewise additivity) of anti-HIV activity (in combination with nevirapine): synergistic | interaction (deviation from dosewise additivity) of anti-HIV activity (in combination with raltegravir): additive | interaction (deviation from dosewise additivity) of anti-HIV activity (in combination with stavudine): synergistic | effect of the presence of ribavirin on anti-HIV activity (in the presence of ribavirin): not affected
